Here are results for four compounds from patent publication US7998984B2, “2-pyridone derivatives for the treatment of disease or condition in which inhibition of neutrophil elastase activity is beneficial” (AstraZeneca AB, priority 2006, dated 2011).

The term IC50 denotes the concentration that inhibits the measured activity by half.

For this test, the target named is T1, Human Neutrophil Elastase (HNE) (Homo sapiens, UniProt P08246).
T1 construct: Human Neutrophil Elastase (HNE) purified from serum; purchased Calbiochem 324681; host or cells: purified from human serum (so in the source)
T1 sequence (P08246 30-247 limits assumed): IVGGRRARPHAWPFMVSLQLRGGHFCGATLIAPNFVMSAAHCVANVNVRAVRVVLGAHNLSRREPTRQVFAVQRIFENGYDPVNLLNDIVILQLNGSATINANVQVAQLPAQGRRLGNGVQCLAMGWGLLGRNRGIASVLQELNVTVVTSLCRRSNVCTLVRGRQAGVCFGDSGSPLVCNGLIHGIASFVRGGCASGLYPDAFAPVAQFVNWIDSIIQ
Briefly: Human Neutrophil Elastase Quenched-FRET Assay. The note with it: HNE 1.7 nM, substrate MeOSuc-AAPV-AMC 100 μM, 15 min pre-incubation, 30 min incubation at room temperature; read-out: Inhibition of Human Neutrophil Elastase IC50. The class given is biochemical. As for the experimental part: Human Neutrophil Elastase Quenched-FRET Assay
HNE was stored in 50 mM sodium acetate (NaOAc), 200 mM sodium chloride (NaCl), pH 5.5 with added 30% glycerol at −20° C. […] The substrate was stored in dimethyl sulphoxide (DMSO) at −20° C. […] The assay buffer constitution was: 100 mM Tris(hydroxymethyl)aminomethane (TRIS) (pH 7.5) and 500 mM NaCl. The enzyme and the compounds were incubated at room temperature for 15 minutes. Then 30 μl substrate in assay buffer was added. The assay was incubated for 30 minutes at room temperature. […] The assay was then stopped by adding 60 μl stop solution (140 mM acetic acid, 200 mM sodium monochloroacetate, 60 mM sodium acetate, pH 4.3).

With `CNC(=O)c1cc(-c2nc(N)sc2-c2ccc(Cl)cc2)c(C)n(-c2cccc(C(F)(F)F)c2)c1=O` [Example 3, 5-[2-Amino-5-(4-chlorophenyl)-1,3-thiazol-4-yl]-N,6-dimethyl-2-oxo-1-[3-(trifluoromethyl)-phenyl]-1,2-dihydropyridine-3-carboxamide], the IC50 turned out to be 260 pM.
Consider `CNC(=O)c1cc(-c2ocnc2-c2ccc(Cl)cc2)c(C)n(-c2cccc(C(F)(F)F)c2)c1=O` [Example 4, 5-[4-(4-Chlorophenyl)-1,3-oxazol-5-yl]-N,6-dimethyl-2-oxo-1-[3-(trifluoromethyl)phenyl]-1,2-dihydropyridine-3-carboxamide], for which the IC50 was 1600 pM.
With `CNC(=O)c1cc(-c2nc(N)sc2-c2ccc(C#N)cc2)c(C)n(-c2cccc(C(F)(F)F)c2)c1=O` [Example 5, 5-[2-Amino-5-(4-cyanophenyl)-1,3-thiazol-4-yl]-N,6-dimethyl-2-oxo-1-[3-(trifluoromethyl)phenyl]-1,2-dihydropyridine-3-carboxamide] the figure was 260 pM; with `CNC(=O)c1cc(-c2ccnn2-c2ccc(C#N)cc2)c(C)n(-c2ccc(F)c(Cl)c2)c1=O` [Example 6, 1-(3-Chloro-4-fluorophenyl)-5-[1-(4-cyanophenyl)-1H-pyrazol-5-yl]-N,6-dimethyl-2-oxo-1,2-dihydropyridine-3-carboxamide], 930 pM.
